# Measured values from patent US9670227B2, “Thienopyrimidine derivatives, a process for their preparation and pharmaceutical compositions containing them” (LES LABORATOIRES SERVIER, priority 2013, dated 2017).
# Read-outs that look alike come from different tables or passages of the source.
# Columns and labels:
# Mcl-1 protein = Mcl-1 protein (UniProtKB primary accession number: Q07820) (Homo sapiens, UniProt Q07820); assay: Inhibition of Mcl-1 by fluorescence polarisation, Method 1; type: binding; conditions: read-out: IC50 (M) Mcl-1 FP
# Chain of Mcl-1 protein (Q07820 whole entry): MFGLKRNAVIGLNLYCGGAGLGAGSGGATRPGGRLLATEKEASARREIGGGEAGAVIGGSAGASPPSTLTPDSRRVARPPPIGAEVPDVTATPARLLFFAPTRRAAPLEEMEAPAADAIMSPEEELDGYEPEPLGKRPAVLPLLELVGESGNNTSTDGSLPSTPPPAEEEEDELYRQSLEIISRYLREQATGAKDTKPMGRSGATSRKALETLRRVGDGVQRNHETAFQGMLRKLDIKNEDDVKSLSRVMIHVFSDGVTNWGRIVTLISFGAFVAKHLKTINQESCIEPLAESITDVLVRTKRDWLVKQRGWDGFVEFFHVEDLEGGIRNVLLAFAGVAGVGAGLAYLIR
# Procedure, shortened: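 Binding was measured as fluorescence polarisation of a fluorescein-labelled ligand (1 nM) displaced from Mcl-1 (5 nM), both final. Compounds ran as 11-point series with final DMSO at 5%.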
# [1] = tested on: H929 multiple myeloma tumour line; assay: In vitro cytotoxicity, Microculture Tetrazolium Assay; type: cell-based; conditions: Homo sapiens, NCI-H929, 48 h, H929 cells, 48 hours exposure, MTT; read-out: IC50 (μM) MTT H929
# Description: The cytotoxicity studies were carried out on the H929 multiple myeloma tumour line.
# The cells are distributed onto microplates and exposed to the test compounds for 48 hours.
# [2] = fluorescence polarisation test, Method 2 values are underlined in the patent (underlining not visible here)
# [3] = fluorescence polarisation, Method 1, or Method 2
IC50 (Mcl-1 protein; [2]) [M],IC50 (Mcl-1 protein; [3]) [M],Structure (SMILES),IC50 [1] [µM]
4e-08,–,"CCc1sc2ncnc(OC(Cc3ccccc3)C(=O)O)c2c1-c1ccc(OCC(=O)N(C)C)c(Cl)c1C [Example 390, (2R)-2-[((5Sa)-5-{3-chloro-4-[2-(dimethylamino)-2-oxoethoxy]-2-methylphenyl}-6-ethylthieno[2,3-d]pyrimidin-4-yl)oxy]-3-phenylpropanoic acid]",20
–,1.7e-07,"CCc1sc2ncnc(OC(Cc3ccccc3)C(=O)O)c2c1-c1cc(CN2CCN(C)CC2)c(OC)c(Cl)c1C [Example 434, (2R)-2-[((5Sa)-5-{3-chloro-4-methoxy-2-methyl-5-[(4-methylpiperazin-1-yl)methyl]phenyl}-6-ethylthieno[2,3-d]pyrimidin-4-yl)oxy]-3-phenylpropanoic acid]",11.3
–,8.7e-09,"COCCOc1cccc(-c2sc3ncnc(OC(Cc4ccccc4OC)C(=O)O)c3c2-c2ccc(OCCN3CCN(C)CC3)c(Cl)c2C)c1 [Example 589, (2R)-2-[((5Sa)-5-{3-chloro-2-methyl-4-[2-(4-methylpiperazin-1-yl)ethoxy]phenyl}-6-[3-(2-methoxyethoxy)phenyl]thieno[2,3-d]pyrimidin-4-yl)oxy]-3-(2-methoxyphenyl)propanoic acid]",0.233
–,6.5e-08,"COc1ccccc1CC(Oc1ncnc2sc(C3CCCO3)c(-c3ccc(OCCN4CCN(C)CC4)c(Cl)c3C)c12)C(=O)O (single isomer, unassigned) [Example 591, (2R)-2-{[(5Sa)-5-{3-chloro-2-methyl-4-[2-(4-methylpiperazin-1-yl)ethoxy]phenyl}-6-((2R or S)-tetrahydrofuran-2-yl)thieno[2,3-d]pyrimidin-4-yl]oxy}-3-(2-methoxyphenyl)propanoic acid]",1.67
4.5e-09,–,"Cc1c(-c2c(-c3ccc(F)cc3)sc3ncnc(OC(Cc4ccccc4OCc4ccnc(C5CCCC5)n4)C(=O)O)c23)ccc(OCCN2CCN(C)CC2)c1Cl [Example 28, (2R)-2-{[(5Sa)-5-{3-chloro-2-methyl-4-[2-(4-methylpiperazin-1-yl)ethoxy]phenyl}-6-(4-fluorophenyl)thieno[2,3-d]pyrimidin-4-yl]oxy}-3-{2-[(2-cyclopentylpyrimidin-4-yl)methoxy]phenyl}propanoic acid]",0.021
–,1.5e-08,"CC#Cc1sc2ncnc(OC(Cc3ccccc3OC)C(=O)O)c2c1-c1ccc(OCCN2CCCCC2)c(Cl)c1C [Example 469, (2R)-2-{[(5Sa)-5-{3-chloro-2-methyl-4-[2-(piperidin-1-yl)ethoxy]phenyl}-6-(prop-1-yn-1-yl)thieno[2,3-d]pyrimidin-4-yl]oxy}-3-(2-methoxyphenyl)propanoic acid]",3.06
4.3e-09,–,"Cc1cscc1-c1nccc(COc2ccccc2CC(Oc2ncnc3sc(-c4ccc(F)cc4)c(-c4ccc(OCCN5CCN(C)CC5)c(Cl)c4C)c23)C(=O)O)n1 [Example 124, (2R)-2-{[(5Sa)-5-{3-chloro-2-methyl-4-[2-(4-methylpiperazin-1-yl)ethoxy]phenyl}-6-(4-fluorophenyl)thieno[2,3-d]pyrimidin-4-yl]oxy}-3-(2-{[2-(4-methylthiophen-3-yl)pyrimidin-4-yl]methoxy}phenyl)propanoic acid]",0.024
1.4e-08,–,"Cc1c(-c2c(-c3ccc(F)cc3)sc3ncnc(OC(Cc4ccccc4OCC4CCCO4)C(=O)O)c23)ccc(OCCN(C)C)c1Cl [Example 126, (2R)-2-{[(5Sa)-5-{3-chloro-4-[2-(dimethylamino)ethoxy]-2-methylphenyl}-6-(4-fluorophenyl)thieno[2,3-d]pyrimidin-4-yl]oxy}-3-{2-[(2R)-tetrahydrofuran-2-ylmethoxy]phenyl}propanoic acid]",0.7
–,3.66e-09,"COc1ccccc1-c1nccc(COc2ccccc2CC(Oc2ncnc3sc(-c4ccc(OCCc5ccccc5)cc4)c(-c4ccc(OCCN5CCN(C)CC5)c(Cl)c4C)c23)C(=O)O)n1 (single isomer, unassigned) [Example 766]",0.037
–,4e-08,"CCc1sc2ncnc(OC(Cc3ccccc3)C(=O)O)c2c1-c1ccc(OCCN2CCOCC2)c(Cl)c1C [Example 420, (2R)-2-[((5Sa)-5-{3-chloro-2-methyl-4-[2-(morpholin-4-yl)ethoxy]phenyl}-6-ethylthieno[2,3-d]pyrimidin-4-yl)oxy]-3-phenylpropanoic acid]",15.6
–,2.9e-08,"CCc1sc2ncnc(OC(Cc3ccccc3)C(=O)O)c2c1-c1cc(Cl)c(OCCN2CCN(C)CC2)c(Cl)c1C [Example 436, (2R)-2-[((5Sa)-5-{3,5-dichloro-2-methyl-4-[2-(4-methylpiperazin-1-yl)ethoxy]phenyl}-6-ethylthieno[2,3-d]pyrimidin-4-yl)oxy]-3-phenylpropanoic acid]",15.1
3.4e-09,–,"COCCSc1nccc(COc2ccccc2CC(Oc2ncnc3sc(-c4ccc(F)cc4)c(-c4ccc(OCCN5CCN(C)CC5)c(Cl)c4C)c23)C(=O)O)n1 [Example 67, (2R)-2-{[(5Sa)-5-{3-chloro-2-methyl-4-[2-(4-methylpiperazin-1-yl)ethoxy]phenyl}-6-(4-fluorophenyl)thieno[2,3-d]pyrimidin-4-yl]oxy}-3-[2-({2-[(2-methoxyethyl)sulfanyl]pyrimidin-4-yl}methoxy)phenyl]propanoic acid]",0.03
6.6e-09,–,"Cc1c(-c2c(-c3ccco3)sc3ncnc(OC(Cc4ccccc4OCc4ccncc4)C(=O)O)c23)ccc(OCCN2CCN(C)CC2)c1Cl [Example 258, (2R)-2-{[(5Sa)-5-{3-chloro-2-methyl-4-[2-(4-methylpiperazin-1-yl)ethoxy]phenyl}-6-(furan-2-yl)thieno[2,3-d]pyrimidin-4-yl]oxy}-3-[2-(pyridin-4-ylmethoxy)phenyl]propanoic acid]",0.069
7.9e-09,–,"Cc1c(-c2c(-c3ccco3)sc3ncnc(OC(Cc4ccccc4OCc4cscn4)C(=O)O)c23)ccc(OCCN2CCN(C)CC2)c1Cl [Example 281, (2R)-2-{[(5Sa)-5-{3-chloro-2-methyl-4-[2-(4-methylpiperazin-1-yl)ethoxy]phenyl}-6-(furan-2-yl)thieno[2,3-d]pyrimidin-4-yl]oxy}-3-[2-(1,3-thiazol-4-ylmethoxy)phenyl]propanoic acid]",0.081
5.6e-09,–,"Cc1c(-c2c(-c3ccc(Cl)o3)sc3ncnc(OC(Cc4ccccc4OCc4ccnn4C)C(=O)O)c23)ccc(OCCN2CCN(C)CC2)c1Cl [Example 371, (2R)-2-{[6-(5-chlorofuran-2-yl)-(5Sa)-5-{3-chloro-2-methyl-4-[2-(4-methylpiperazin-1-yl)ethoxy]phenyl}thieno[2,3-d]pyrimidin-4-yl]oxy}-3-{2-[(1-methyl-1H-pyrazol-5-yl)methoxy]phenyl}propanoic acid]",0.027
–,5.6e-08,"CC#Cc1sc2ncnc(OC(Cc3ccccc3OC)C(=O)O)c2c1-c1cc(OC)c(OCCN2CCN(C)CC2)c(Cl)c1C [Example 477, (2R)-2-{[(5Sa)-5-{3-chloro-5-methoxy-2-methyl-4-[2-(4-methylpiperazin-1-yl)ethoxy]phenyl}-6-(prop-1-yn-1-yl)thieno[2,3-d]pyrimidin-4-yl]oxy}-3-(2-methoxyphenyl)propanoic acid]",2.57
